Reference: ChEMBL document CHEMBL1201862, “PubChem BioAssay data set” (2004)
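Following 48 hours of exposure in 96-well plates, responses at five concentrations were used to interpolate endpoints linearly. Abbreviation: GI50, concentration required for 50% inhibition of growth.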 The source made the active and inactive calls. Rule as the data show it: active = GI50 up to about 1.1 µM and inactive = higher.

Legend:
Assay in all cases: DTP human tumour cell line panel, 48 h
A498 = test system: A498
ACHN = test system: ACHN
CCRF-CEM = test system: CCRF-CEM
COLO 205 = test system: COLO 205
EKVX = test system: EKVX
HCC 2998 = test system: HCC 2998
HOP-62 = test system: HOP-62
IGROV-1 = test system: IGROV-1
KM12 = test system: KM12
LOX IMVI = test system: LOX IMVI
MCF7 = test system: MCF7
MDA-MB-231 = test system: MDA-MB-231
MOLT-4 = test system: MOLT-4
Malme-3M = test system: Malme-3M
OVCAR-3 = test system: OVCAR-3
OVCAR-4 = test system: OVCAR-4
PC-3 = test system: PC-3
SK-MEL-5 = test system: SK-MEL-5
SW-620 = test system: SW-620
TK-10 = test system: TK-10

Measured: GI50

Cc1cc(O)c(O)c(Oc2cc(C)cc(O)c2O)c1
inactive: A498 > 100 µM | ACHN 11.6 µM | CCRF-CEM 2.37 µM | COLO 205 20.1 µM | EKVX 16 µM | HCC 2998 32 µM | HOP-62 67.6 µM | IGROV-1 12.4 µM | KM12 22 µM | LOX IMVI 4.57 µM | MCF7 13.1 µM | MDA-MB-231 20.3 µM | MOLT-4 10 µM | Malme-3M > 10 µM | OVCAR-3 4.48 µM | OVCAR-4 13.4 µM | PC-3 21.9 µM | SK-MEL-5 33.9 µM | SW-620 16.9 µM | TK-10 17.1 µM

CCOC(=O)C(N)CSC(=O)NC (stereo not given)
inactive: A498 236 µM | ACHN 184 µM | CCRF-CEM 49.3 µM | COLO 205 78.5 µM | EKVX 269 µM | HCC 2998 271 µM | HOP-62 154 µM | IGROV-1 155 µM | KM12 175 µM | LOX IMVI 40.4 µM | MCF7 93.5 µM | MDA-MB-231 99.1 µM | MOLT-4 55.1 µM | Malme-3M 117 µM | OVCAR-3 96.6 µM | OVCAR-4 219 µM | PC-3 132 µM | SK-MEL-5 116 µM | SW-620 80.4 µM | TK-10 247 µM

COc1ccc(C(OC(=O)[C@H](O[Si](C)(C)C(C)(C)C)[C@@H](NC(=O)c2ccccc2)c2ccccc2)c2ccc(OC)cc2)cc1
inactive: A498 > 100 µM | ACHN > 100 µM | CCRF-CEM > 100 µM | COLO 205 > 100 µM | EKVX > 100 µM | HCC 2998 68.1 µM | HOP-62 > 100 µM | IGROV-1 > 100 µM | KM12 > 100 µM | LOX IMVI > 100 µM | MCF7 65 µM | MDA-MB-231 48.3 µM | MOLT-4 52 µM | Malme-3M > 100 µM | OVCAR-3 > 100 µM | OVCAR-4 > 100 µM | PC-3 > 100 µM | SK-MEL-5 77.1 µM | SW-620 > 100 µM | TK-10 > 100 µM

CC(O)/C=C/C1OC(=O)CC1Nc1ccc(C=O)cc1 (stereo not given)
inactive: A498 > 100 µM | ACHN > 100 µM | CCRF-CEM 15.8 µM | COLO 205 42.9 µM | EKVX > 100 µM | HCC 2998 > 100 µM | HOP-62 20.9 µM | IGROV-1 91.2 µM | KM12 > 100 µM | LOX IMVI > 100 µM | MCF7 55.2 µM | MDA-MB-231 > 100 µM | MOLT-4 10.8 µM | Malme-3M > 100 µM | OVCAR-3 81.3 µM | OVCAR-4 > 100 µM | PC-3 > 100 µM | SK-MEL-5 16.6 µM | SW-620 > 100 µM | TK-10 > 100 µM

COc1cccc(CCCNC(=O)Cc2ccccc2CO)c1
inactive: A498 > 100 µM | ACHN > 100 µM | CCRF-CEM > 100 µM | COLO 205 > 100 µM | EKVX > 100 µM | HCC 2998 > 100 µM | HOP-62 > 100 µM | IGROV-1 > 100 µM | KM12 > 100 µM | LOX IMVI > 100 µM | MCF7 > 100 µM | MDA-MB-231 > 100 µM | MOLT-4 > 100 µM | Malme-3M > 100 µM | OVCAR-3 > 100 µM | OVCAR-4 > 100 µM | PC-3 > 100 µM | SK-MEL-5 > 100 µM | SW-620 > 100 µM | TK-10 > 100 µM

CNC(=O)OCC1=C(COC(=O)NC)C(C)N(c2ccccc2)C1 (stereo not given)
inactive: A498 3.05 µM | ACHN 33.7 µM | CCRF-CEM 37.2 µM | COLO 205 21.2 µM | EKVX 46.1 µM | HCC 2998 25.2 µM | HOP-62 53.6 µM | IGROV-1 26.2 µM | KM12 30.5 µM | LOX IMVI 32.7 µM | MCF7 20.8 µM | MDA-MB-231 41.2 µM | MOLT-4 23 µM | Malme-3M 33.9 µM | OVCAR-3 30.4 µM | OVCAR-4 37.8 µM | PC-3 40.5 µM | SK-MEL-5 17.1 µM | SW-620 46.1 µM | TK-10 24.5 µM
